Values joined by “and” are separate entries in the source; they are usually repeats but may differ in a detail not shown here. Identical values can stand only once. Where a SMILES comes first, the peptide text is derived from it. [ ]: non-standard residue; d: D form. Hyp = O=C(O)[C@@H]1C[C@@H](O)CN1
Test system: IFN-gamma
Experiment: Example 9 Luminex, LPS hPBMCs: IFN-gamma
Format: cell-based, human
Procedure: Treatment Human PBMCs were pretreated with YY-101, YDE-011 and YDE-043 or reference compound; Xiidra® at various concentration (ranging from 1 nM to 100 uM) for 2 h before stimulation. An equal volume of 0.5% DMSO was used as a vehicle control. Then, the cells were treated with LPS at 5 ug/ml. The supernatants from treated cells were harvested at 24 h and placed in a 96 well for Luminex cytokine & chemokine profiling using a Luminex 200 multiplex assay (Luminex; R&D system, USA).
The main study arm with triplicate wells per group in a 24-well plate: • 1. Blank • 2. PBMC: 0.5% DMSO • 3. PBMC+LPS (5 ug/ml) • 4. PBMC+YY-101 100 uM • 5. PBMC+YY-101 10 uM • 6. PBMC+YY-101 1 uM • 7. PBMC+YY-101 0.1 uM • 8. PBMC+YY-101 0.01 uM • 9. PBMC+LPS (5 ug/ml)+Xiidra®100 uM • 10. PBMC+LPS (5 ug/ml)+Xiidra® 10 uM • 11. PBMC+LPS (5 ug/ml)+Xiidra® 1 uM • 12. PBMC+LPS (5 ug/ml)+Xiidra®0.1 uM • 13. PBMC+LPS (5 ug/ml)+Xiidra®0.01 uM • 14. PBMC+LPS (5 ug/ml)+Xiidra®0.001 uM • 15. PBMC+LPS (5 ug/ml)+YY-101 100 uM • 16. PBMC+LPS (5 ug/ml)+YY-101 10 uM • 17. PBMC+LPS (5 ug/ml)+YY-101 1 uM • 18. PBMC+LPS (5 ug/ml)+YY-101 0.1 uM • 19. PBMC+LPS (5 ug/ml)+YY-101 0.01 uM • 20. PBMC+LPS (5 ug/ml)+YY-101 0.001 uM • 21. PBMC+LPS (5 ug/ml)+YDE-011 100 uM • 22. PBMC+LPS (5 ug/ml)+YDE-011 10 uM • 23. PBMC+LPS (5 ug/ml)+YDE-011 1 uM • 24. PBMC+LPS (5 ug/ml)+YDE-011 0.1 uM • 25. PBMC+LPS (5 ug/ml)+YDE-011 0.01 uM • 26. PBMC+LPS (5 ug/ml)+YDE-011 0.001 uM • 27. PBMC+LPS (5 ug/ml)+YDE-043 100 uM • 28. PBMC+LPS (5 ug/ml)+YDE-043 10 uM • 29. PBMC+LPS (5 ug/ml)+YDE-043 1 uM • 30. PBMC+LPS (5 ug/ml)+YDE-043 0.1 uM • 31. PBMC+LPS (5 ug/ml)+YDE-043 0.01 uM • 32. PBMC+LPS (5 ug/ml)+YDE-043 0.001 uM
Multiplex assay was used to measure 30 cytokines and chemokines. The 1:2, 1:10 and 1:200 diluted cell supernatant and serial dilution of the standard were dispensed into a 96 well plate at 50 ul/well. Then, the pre-mixed cocktail of antibody-coated magnetic beads was dispensed at 50 ul/well and incubated at room temperature for 2 h in a horizontal orbital microplate shaker at 800±500 rpm. The beads were washed using a magnetic device to prevent loss. The biotin-antibody was dispensed in 50 ul of each well and incubated at room temperature for 1 h in a shaker at 800±500 rpm. After washing, streptavidin-PE was added at 50 ul/well and incubated at room temperature for 30 min in a shaker under the same conditions. Finally, after washing, wash buffer (100 ul/well) was added to the plate and incubated in a shaker for 2 min. The Luminex™ 200 setting were set according to the manufacturer's protocol. The data was calculated with a standard five-parameter logistic nonlinear regression analysis of the data (xPonent software 4.2, USA). The levels of cytokine/chemokine are normalized to the live cell counts (1×10^5 cells/mL) and presented as concentrations per mL (pg/mL or ng/mL).

[1] = PBMC + LPS(5 ug/ml) + test article 0.001 uM, Mean
[2] = PBMC + LPS(5 ug/ml) + test article 0.001 uM, single replicates
[3] = PBMC + LPS(5 ug/ml) + test article 0.01 uM, Mean
[4] = PBMC + LPS(5 ug/ml) + test article 0.01 uM, single replicates
[5] = PBMC + LPS(5 ug/ml) + test article 0.1 uM, Mean
[6] = PBMC + LPS(5 ug/ml) + test article 0.1 uM, single replicates
[7] = PBMC + LPS(5 ug/ml) + test article 1 uM, Mean
[8] = PBMC + LPS(5 ug/ml) + test article 1 uM, single replicates
[9] = PBMC + LPS(5 ug/ml) + test article 10 uM, Mean
[10] = PBMC + LPS(5 ug/ml) + test article 10 uM, single replicates
[11] = PBMC + LPS(5 ug/ml) + test article 100 uM, Mean
[12] = PBMC + LPS(5 ug/ml) + test article 100 uM, single replicates
[13] = PBMC + test article 0.01 uM, no LPS, Mean
[14] = PBMC + test article 0.01 uM, no LPS, single replicates
[15] = PBMC + test article 0.1 uM, no LPS, Mean
[16] = PBMC + test article 0.1 uM, no LPS, single replicates
[17] = PBMC + test article 1 uM, no LPS, Mean
[18] = PBMC + test article 1 uM, no LPS, single replicates
[19] = PBMC + test article 10 uM, no LPS, Mean
[20] = PBMC + test article 10 uM, no LPS, single replicates
[21] = PBMC + test article 100 uM, no LPS, Mean
[22] = PBMC + test article 100 uM, no LPS, single replicates

## CC(C)C[C@H](NC(=O)CNC(=O)[C@H](CC(=O)O)NC(=O)[C@H](CCC(N)=O)NC(=O)CNC(=O)[C@@H]1C[C@@H](O)CN1)C(=O)N[C@@H](C)C(=O)NCC(=O)N1CCC[C@H]1C(=O)N[C@@H](CCCCN)C(=O)O [YY-101] (H-[Hyp]GQDGLAGPK-OH; N-terminus and C-terminus assumed)
[1]
  Concentration (IFN-gamma): 2439.1 pg/mL
  conc/live cell (IFN-gamma): 378.6 pg/10^5
[2]
  Concentration (IFN-gamma): 2345.3 pg/mL and 2706.6 pg/mL and 2265.5 pg/mL
  conc/live cell (IFN-gamma): 411.5 pg/10^5 and 381.2 pg/10^5 and 343.3 pg/10^5
[3]
  Concentration (IFN-gamma): 3133.1 pg/mL
  conc/live cell (IFN-gamma): 507.8 pg/10^5
[4]
  Concentration (IFN-gamma): 3435.7 pg/mL and 3322.0 pg/mL and 2641.6 pg/mL
  conc/live cell (IFN-gamma): 536.8 pg/10^5 and 553.7 pg/10^5 and 433.0 pg/10^5
[5]
  Concentration (IFN-gamma): 1841.4 pg/mL
  conc/live cell (IFN-gamma): 313.6 pg/10^5
[6]
  Concentration (IFN-gamma): 2024.2 pg/mL and 1601.1 pg/mL and 1899.0 pg/mL
  conc/live cell (IFN-gamma): 326.5 pg/10^5 and 307.9 pg/10^5 and 306.3 pg/10^5
[7]
  Concentration (IFN-gamma): 2318.4 pg/mL
  conc/live cell (IFN-gamma): 355.2 pg/10^5
[8]
  Concentration (IFN-gamma): 2480.1 pg/mL and 2437.0 pg/mL and 2038.3 pg/mL
  conc/live cell (IFN-gamma): 393.7 pg/10^5 and 343.2 pg/10^5 and 328.8 pg/10^5
[9]
  Concentration (IFN-gamma): 2654.7 pg/mL
  conc/live cell (IFN-gamma): 406.4 pg/10^5
[10]
  Concentration (IFN-gamma): 3058.1 pg/mL and 2593.6 pg/mL and 2312.4 pg/mL
  conc/live cell (IFN-gamma): 509.7 pg/10^5 and 405.2 pg/10^5 and 304.3 pg/10^5
[11]
  Concentration (IFN-gamma): 1939.0 pg/mL
  conc/live cell (IFN-gamma): 333.7 pg/10^5
[12]
  Concentration (IFN-gamma): 1943.2 pg/mL and 2122.4 pg/mL and 1751.5 pg/mL
  conc/live cell (IFN-gamma): 308.4 pg/10^5 and 342.3 pg/10^5 and 350.3 pg/10^5
[13]
  Concentration (IFN-gamma): 20.8 pg/mL
  conc/live cell (IFN-gamma): 4.2 pg/10^5
[14]
  Concentration (IFN-gamma): 12.5 pg/mL and 29.1 pg/mL
  conc/live cell (IFN-gamma): 2.4 pg/10^5 and 6.1 pg/10^5
[15]
  Concentration (IFN-gamma): 20.8 pg/mL
  conc/live cell (IFN-gamma): 3.9 pg/10^5
[16]
  Concentration (IFN-gamma): 12.5 pg/mL and 29.1 pg/mL
  conc/live cell (IFN-gamma): 2.8 pg/10^5 and 5.0 pg/10^5
[17]
  Concentration (IFN-gamma): 18.1 pg/mL
  conc/live cell (IFN-gamma): 3.3 pg/10^5
[18]
  Concentration (IFN-gamma): 12.5 pg/mL and 23.7 pg/mL
  conc/live cell (IFN-gamma): 2.3 pg/10^5 and 4.3 pg/10^5
[19]
  Concentration (IFN-gamma): 50.9 pg/mL
  conc/live cell (IFN-gamma): 8.1 pg/10^5
[20]
  Concentration (IFN-gamma): 67.3 pg/mL and 34.4 pg/mL
  conc/live cell (IFN-gamma): 10.5 pg/10^5 and 5.6 pg/10^5
[21]
  Concentration (IFN-gamma): 36.8 pg/mL
  conc/live cell (IFN-gamma): 5.6 pg/10^5
[22]
  Concentration (IFN-gamma): 49.9 pg/mL and 23.7 pg/mL
  conc/live cell (IFN-gamma): 7.8 pg/10^5 and 3.4 pg/10^5

Reference: patent US20230146455A1, “TREATMENT OF INFLAMMATORY DISEASES WITH PEPTIDES AND PHARMACEUTICAL COMPOSITIONS” (Yuyu Pharma, Inc., priority 2020, published 2023)
